Results taken from US9365584B2, “Thieno [2,3-B] pyridinedione activators of AMPK and therapeutic uses thereof” (Poxel, priority 2009, dated 2016).

The compounds below were run on AMPK (assay: AMPK enzyme activity assay (Delfia technology, AMARA peptide substrate)). Conditions: compound at 30 μM vs AMP at 200 μM.
Assay type: biochemical
Method in brief: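 Value is the ratio of compound (30 μM) to AMP (200 μM) response, each as % of basal control. Phosphorylation of the AMARA peptide after AMPK addition was read by Delfia with an anti-phosphoserine antibody.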

Question: For `O=C1Nc2scc(-c3cccnc3)c2C(=O)C1(F)c1ccccc1` (centres unmarked) [No 214, 5-fluoro-5-phenyl-3-(3-pyridyl)-7H-thieno[2,3-b]pyridine-4,6-dione], which “Activity: Ratio between the % of control (basal activity) of compound of formula (1) at 30 μM and the % of control (basal activity) of AMP (natural substrate) at 200 μM” value (“Activity: Ratio between the % of control” below) is on record?
Answer: A (0%<A<50%)

Question: For `O=C1Nc2scc(-c3ccc(Br)cc3O)c2C(=O)C1(F)c1ccccc1` (centres unmarked) [No 123, 3-(4-bromo-2-hydroxy-phenyl)-5-fluoro-5-phenyl-7H-thieno[2,3-b]pyridine-4,6-dione], which “Activity: Ratio between the % of control” value is on record?
Answer: C (C≧75%)

Question: With `COc1c(-c2c(Cl)sc3c2C(=O)C(C)(c2ccccc2)C(=O)N3)ccc(F)c1F` (centres unmarked) [No 13, 2-chloro-3-(3,4-difluoro-2-methoxy-phenyl)-5-methyl-5-phenyl-7H-thieno[2,3-b]pyridine-4,6-dione] as the compound, how does the “Activity: Ratio between the % of control” value read?
Answer: A (0%<A<50%)

Question: For `O=C1Nc2sc(Cl)c(-c3ccccc3)c2C(=O)C1(Cl)c1ccccc1` (centres unmarked) [No 222, 2,5-dichloro-3,5-diphenyl-7H-thieno[2,3-b]pyridine-4,6-dione], which “Activity: Ratio between the % of control” value is on record?
Answer: C (C≧75%)

Question: For `CC1(c2cccc(S(C)(=O)=O)c2)C(=O)Nc2sc(Cl)c(-c3ccc(F)cc3)c2C1=O` (centres unmarked) [No 64, 2-chloro-3-(4-fluorophenyl)-5-methyl-5-(3-methyl-sulfonylphenyl)-7H-thieno[2,3-b]pyridine-4,6-dione], which “Activity: Ratio between the % of control” value is on record?
Answer: C (C≧75%)

Question: How did the “Activity: Ratio between the % of control” value turn out when `COc1ccc(C2(C)C(=O)Nc3sc(Cl)c(-c4ccc(F)cc4O)c3C2=O)cc1` (centres unmarked) [No 15, 2-chloro-3-(4-fluoro-2-hydroxy-phenyl)-5-(4-methoxy-phenyl)-5-methyl-7H-thieno[2,3-b]pyridine-4,6-dione] was run?
Answer: A (0%<A<50%)

Question: With `O=C1Nc2sc(Cl)c(-c3ccccc3)c2C(=O)C1(F)c1ccccc1` (centres unmarked) [No 20, 2-chloro-5-fluoro-3,5-diphenyl-7H-thieno[2,3-b]pyridine-4,6-dione] as the compound, how does the “Activity: Ratio between the % of control” value read?
Answer: C (C≧75%)

Question: With “5-fluoro-3-(2-naphthyl)-5-phenyl-7H-thieno[2,3-b]pyridine-4,6-dione [No 161]” as the compound, how does the “Activity: Ratio between the % of control” value read?
Answer: C (C≧75%)

Question: `CC1(c2cccc(F)c2)C(=O)Nc2sc(Cl)c(-c3ccccc3F)c2C1=O` (centres unmarked) [No 90, 2-chloro-3-(2-fluorophenyl)-5-(3-fluorophenyl)-5-methyl-7H-thieno[2,3-b]pyridine-4,6-dione] was tested. Which “Activity: Ratio between the % of control” value did it give?
Answer: A (0%<A<50%)

Question: For `O=C1Nc2sc(Cl)c(-c3ccc(F)cc3O)c2C(=O)C1(F)c1cccc(F)c1` (centres unmarked) [No 215, 2-chloro-5-fluoro-3-(4-fluoro-2-hydroxy-phenyl)-5-(3-fluorophenyl)-7H-thieno[2,3-b]pyridine-4,6-dione], which “Activity: Ratio between the % of control” value is on record?
Answer: C (C≧75%)

Question: For `CC1(c2ccccc2)C(=O)Nc2sc(Cl)c(-c3ccccc3F)c2C1=O` (centres unmarked) [No 30, 2-chloro-3-(2-fluorophenyl)-5-methyl-5-phenyl-7H-thieno[2,3-b]pyridine-4,6-dione], which “Activity: Ratio between the % of control” value is on record?
Answer: A (0%<A<50%)

Question: With `COc1ccccc1-c1c(Cl)sc2c1C(=O)C(C)(c1ccccc1F)C(=O)N2` (centres unmarked) [No 69, 2-chloro-5-(2-fluorophenyl)-3-(2-methoxyphenyl)-5-methyl-7H-thieno[2,3-b]pyridine-4,6-dione] as the compound, how does the “Activity: Ratio between the % of control” value read?
Answer: C (C≧75%)

Question: How did the “Activity: Ratio between the % of control” value turn out when `COc1ccc(-c2c(Cl)sc3c2C(=O)C(C)(c2cccc(OC)c2)C(=O)N3)cc1` (centres unmarked) [No 88, 2-chloro-5-(3-methoxyphenyl)-3-(4-methoxyphenyl)-5-methyl-7H-thieno[2,3-b]pyridine-4,6-dione] was run?
Answer: A (0%<A<50%)

Question: `Cc1ccc(-c2c(Cl)sc3c2C(=O)C(F)(c2ccccc2)C(=O)N3)c(O)c1F` (centres unmarked) [No 191, 2-chloro-5-fluoro-3-(3-fluoro-2-hydroxy-4-methyl-phenyl)-5-phenyl-7H-thieno[2,3-b]pyridine-4,6-dione] was tested. Which “Activity: Ratio between the % of control” value did it give?
Answer: C (C≧75%)

Question: How did the “Activity: Ratio between the % of control” value turn out when `Cc1c(F)ccc(-c2csc3c2C(=O)C(F)(c2ccc(F)cc2)C(=O)N3)c1O` (centres unmarked) [No 108, 5-fluoro-3-(4-fluoro-2-hydroxy-3-methyl-phenyl)-5-(4-fluorophenyl)-7H-thieno[2,3-b]pyridine-4,6-dione] was run?
Answer: C (C≧75%)

Question: With `Cc1cccc(-c2c(Cl)sc3c2C(=O)C(C)(c2ccccc2F)C(=O)N3)c1` (centres unmarked) [No 156, 2-chloro-5-(2-fluorophenyl)-5-methyl-3-(m-tolyl)-7H-thieno[2,3-b]pyridine-4,6-dione] as the compound, how does the “Activity: Ratio between the % of control” value read?
Answer: A (0%<A<50%)

Question: Which “Activity: Ratio between the % of control” value does the source give for `CCOc1ccc(C2(C)C(=O)Nc3scc(-c4ccc(C)c(F)c4O)c3C2=O)cc1` (centres unmarked) [No 23, 5-(4-ethoxyphenyl)-3-(3-fluoro-2-hydroxy-4-methyl-phenyl)-5-methyl-7H-thieno[2,3-b]pyridine-4,6-dione] here?
Answer: A (0%<A<50%)

Question: With `COc1cc(Br)ccc1-c1csc2c1C(=O)C(F)(c1ccccc1)C(=O)N2` (centres unmarked) [No 127, 3-(4-bromo-2-methoxy-phenyl)-5-fluoro-5-phenyl-7H-thieno[2,3-b]pyridine-4,6-dione] as the compound, how does the “Activity: Ratio between the % of control” value read?
Answer: A (0%<A<50%)

Question: `O=C1Nc2sc(F)c(-c3cccc(Br)c3)c2C(=O)C1(F)c1ccccc1` (centres unmarked) [No 164, 3-(3-bromophenyl)-2,5-difluoro-5-phenyl-7H-thieno[2,3-b]pyridine-4,6-dione] was tested. Which “Activity: Ratio between the % of control” value did it give?
Answer: C (C≧75%)

Question: For `COc1ccc(C2(F)C(=O)Nc3sc(Cl)c(-c4ccc(F)cc4O)c3C2=O)cc1` (centres unmarked) [No 169, 2-chloro-5-fluoro-3-(4-fluoro-2-hydroxy-phenyl)-5-(4-methoxyphenyl)-7H-thieno[2,3-b]pyridine-4,6-dione], which “Activity: Ratio between the % of control” value is on record?
Answer: C (C≧75%)

Question: How did the “Activity: Ratio between the % of control” value turn out when `O=C(O)c1cccc(-c2csc3c2C(=O)C(F)(c2ccccc2)C(=O)N3)c1` (centres unmarked) [No 196, 3-(5-fluoro-4,6-dioxo-5-phenyl-7H-thieno[2,3-b]pyridin-3-yl)benzoic acid] was run?
Answer: A (0%<A<50%)

Question: `O=C1Nc2scc(-c3ccc(Cl)cc3)c2C(=O)C1(F)c1ccccc1` (centres unmarked) [No 172, 3-(4-chlorophenyl)-5-fluoro-5-phenyl-7H-thieno[2,3-b]pyridine-4,6-dione] was tested. Which “Activity: Ratio between the % of control” value did it give?
Answer: B (50%≦B<75%)

Question: How did the “Activity: Ratio between the % of control” value turn out when `Cc1cccc(-c2c(Cl)sc3c2C(=O)C(C)(c2ccc(F)cc2)C(=O)N3)c1` (centres unmarked) [No 170, 2-chloro-5-(4-fluorophenyl)-5-methyl-3-(m-tolyl)-7H-thieno[2,3-b]pyridine-4,6-dione] was run?
Answer: A (0%<A<50%)

Question: With `Cc1cccc(-c2c(Cl)sc3c2C(=O)C(C)(c2cccc(F)c2)C(=O)N3)c1` (centres unmarked) [No 158, 2-chloro-5-(3-fluorophenyl)-5-methyl-3-(m-tolyl)-7H-thieno[2,3-b]pyridine-4,6-dione] as the compound, how does the “Activity: Ratio between the % of control” value read?
Answer: A (0%<A<50%)

Question: `Cc1cccc(C2(Cl)C(=O)Nc3sc(Cl)c(-c4ccc(F)cc4O)c3C2=O)c1` (centres unmarked) [No 176, 2,5-dichloro-3-(4-fluoro-2-hydroxy-phenyl)-5-(m-tolyl)-7H-thieno[2,3-b]pyridine-4,6-dione] was tested. Which “Activity: Ratio between the % of control” value did it give?
Answer: C (C≧75%)

Question: For `CC1(c2ccccc2)C(=O)Nc2sc(Cl)c(-c3ccc4ccccc4c3O)c2C1=O` (centres unmarked) [No 7, 2-chloro-3-(1-hydroxy-2-naphthyl)-5-methyl-5-phenyl-7H-thieno[2,3-b]pyridine-4,6-dione], which “Activity: Ratio between the % of control” value is on record?
Answer: A (0%<A<50%)

Question: `CC1(c2cccc(F)c2)C(=O)Nc2sc(Cl)c(-c3ccc(F)cc3)c2C1=O` (centres unmarked) [No 51, 2-chloro-5-(3-fluorophenyl)-3-(4-fluorophenyl)-5-methyl-7H-thieno[2,3-b]pyridine-4,6-dione] was tested. Which “Activity: Ratio between the % of control” value did it give?
Answer: A (0%<A<50%)

Question: For `COc1ccc(-c2c(Cl)sc3c2C(=O)C(F)(c2ccccc2)C(=O)N3)cc1` (centres unmarked) [No 81, 2-chloro-5-fluoro-3-(4-methoxyphenyl)-5-phenyl-7H-thieno[2,3-b]pyridine-4,6-dione], which “Activity: Ratio between the % of control” value is on record?
Answer: B (50%≦B<75%)

Question: `O=C1Nc2scc(-c3c(F)cccc3F)c2C(=O)C1(F)c1ccccc1` (centres unmarked) [No 122, 3-(2,6-difluorophenyl)-5-fluoro-5-phenyl-7H-thieno[2,3-b]pyridine-4,6-dione] was tested. Which “Activity: Ratio between the % of control” value did it give?
Answer: C (C≧75%)

Question: How did the “Activity: Ratio between the % of control” value turn out when `O=C1Nc2sc(Cl)c(-c3cc(F)ccc3OCc3ccccc3)c2C(=O)C1(F)c1ccccc1` (centres unmarked) [No 151, 3-(2-benzyloxy-5-fluoro-phenyl)-2-chloro-5-fluoro-5-phenyl-7H-thieno[2,3-b]pyridine-4,6-dione] was run?
Answer: A (0%<A<50%)

Question: For `CC1(C)C(=O)Nc2scc(-c3ccccc3)c2C1=O` [No 18, 5,5-dimethyl-3-phenyl-7H-thieno[2,3-b]pyridine-4,6-dione], which “Activity: Ratio between the % of control” value is on record?
Answer: A (0%<A<50%)

Question: Which “Activity: Ratio between the % of control” value does the source give for `CC1(c2ccc(F)cc2)C(=O)Nc2sc(Cl)c(-c3cccc(F)c3)c2C1=O` (centres unmarked) [No 37, 2-chloro-3-(3-fluorophenyl)-5-(4-fluorophenyl)-5-methyl-7H-thieno[2,3-b]pyridine-4,6-dione] here?
Answer: A (0%<A<50%)
